Data as given in patent US20150051192A1, “BLOCKING OF CUE-INDUCED DRUG REINSTATEMENT” (ALBANY MEDICAL COLLEGE, priority 2012, published 2015).
Entries after “also recorded” stand apart in the source; their conditions may differ. Where two headings read alike, the source gives them in different places.

Legend:
[1] = system: female Sprague-Dawley rats; experiment: Musical cue-induced reinstatement of cocaine seeking (Experiment 3); type: in vivo, rat; settings: 18-MC 40 mg/kg i.p. 20 minutes prior to reinstatement test session, vs saline
Description: Naïve female Sprague-Dawley rats (Taconic Germantown, N.Y.), weighing approximately 250 g at the start of the experiments, were housed individually in a temperature and humidity controlled colony room under a standard 12:12 light/dark cycle. Food and water were provided ad libitum. Protocols were designed and implemented in accordance with the “Guide for the Care and Use of Laboratory Animals” (1996) and were approved by the Institutional Animal Care and Use Committee of Albany Medical College. Rats were given one week of acclimation prior to experimental procedures.
Cocaine hydrochloride (˜0.4 mg/kg/infusion, Sigma-Aldrich, St. Louis, Mo.) was dissolved in 0.9% sodium chloride with a 2 mg/ml drug to saline ratio, and then brought to a neutral physiological pH before use in intravenous (i.v.) self-administration sessions. 18-MC (40 mg/kg, Obiter Research LLC. Champaign, Ill.) and saline were both administered intraperitoneally (i.p.). Animals were anesthetized with sodium pentobarbital (50 mg/kg, i.p.) for both intrajugular and microdialysis cannulation surgeries. Sodium methohexital (10 mg/kg) was used to verify catheter patency. All other reagents used in conjunction with microdialysis experiments were obtained from local suppliers and were of analytical grade.
Miles Davis' “Four” (Prestige Blue Haze, 1954) was the musical track used as a contextual cue in these experiments. The Miles Davis selection was chosen because it had been used successfully in past conditioning paradigms in our laboratory (Polston et al, 2011b). This musical selection was originally chosen because it has a repetitive beat and melody, helping to make it easily recognizable and identifiable. During drug training, self-administration, and applicable test sessions, “Four” was played on a continuous loop, at a volume staying between 65 and 75 decibels. This decibel range was chosen because it had been used successfully in past investigations involving rats and music (Feduccia et al, 2008; Otsuka et al, 2009; Polston et al, 2011b).
Experiments were conducted in rat operant conditioning chambers (ENV-009, Med Associates, St. Albans, Vt.) located within sound attenuated boxes outfitted with acoustical foam. The operant boxes were continuously ventilated with a house fan, and equipped with two retractable levers spaced approximately 20 cm apart on the front wall, with a house light mounted on the back wall of the test chamber. […] By operationally defining the floor (30.5 cm×31.8 cm) of the test chamber, and dividing it into three spatial zones, the program automatically generated detailed readings of the time spent in each zone in seconds and the distance that the animal traveled in meters. […] Videos were also periodically recorded and analyzed to ensure that Anymaze was functioning correctly. […]

study animals [2] = settings: cited from earlier work
rats [3] = settings: compared to saline treated rats; cited from earlier work
[4] = in vivo, cited from earlier work
study animals [5] = settings: cited from earlier work; remark: listed apart in the source
rats [6] = settings: cited from earlier work

COCC[C@H]1CC2CN3CCc4c([nH]c5ccccc45)[C@](C(=O)OC)(C2)[C@H]13 [18-MC, 18-Methoxycoronaridine]
time spent in the inactive or back zones, reinstatement test session ([1]; inactive p=0.488, back p=0.082): no effect of Treatment | active lever responses on the reinstatement test day ([1]; musical cue, p<0.001): significantly fewer active lever responses; also recorded: significantly attenuated responses | time spent in the active zone, reinstatement test session ([1]; p<0.01): significant decrease; also recorded: significantly decreased | locomotor activity on the reinstatement test day ([1]; p=0.143): no significant differences between groups; also recorded: produced no changes in locomotor activity | sensitized dopamine responses in the nucleus accumbens (study animals [2]; local administration into both the medial habenula and the interpeduncular nucleus): produced similar results | sensitized dopamine responses to both morphine and cocaine in the nucleus accumbens (study animals [2]; systemic 18-MC 40 mg/kg pretreatment 19 hours beforehand, chronic dosing models): abolished | locomotor effects alone (rats [3]): produces no locomotor effects alone | acquisition of a cocaine conditioned place preference [4]: able to block the acquisition | acquisition of a cocaine conditioned place preference ([4]; listed as 18MC): block acquisition | effect on drug self-administration (study animals [5]; 10 μg administered into the interpeduncular nucleus): effective | effect on drug self-administration (study animals [5]; 10 μg administered into the ventral tegmental area): no effect | morphine, methamphetamine, and nicotine self-administration (study animals [5]; locally administered into the medial habenula): decreased | nicotine, cocaine, morphine, methamphetamine, and ethanol self-administration (rats [6]): reduce
